Data published in patent publication US20070259856A1, “Method for Activating Trpv4 Channel Receptors by Agonists” (priority 2004, published 2007).
Like-named read-outs stand apart in the source and are kept apart here.

How the values were obtained:
[1] = system: bovine articular cartilage explants; experiment: IL-1 induced collagen degradation (hydroxyproline) in bovine articular cartilage explants; format: cell-based
Description: IL-1 stimulates collagen degradation in bovine articular cartilage explants after extended (−2-3 weeks) exposure to IL-1. Collagen breakdown was evaluated by measuring the levels of hydroxyproline, a major component of hydrolyzed collagen fibrils, using a colorimetric assay that is understood in the art. Bovine articular cartilage was stimulated with IL-1 for 18 days, in the absence or presence of Formula Ib or Formula IId (both at 1 uM). Media was removed and replaced every 2-4 days with fresh IL-1 and compound through day 18. As has been shown previously, aggrecan degradation precedes collagen breakdown in IL-1-stimulated bovine cartilage explants. Once aggrecan depletion had been achieved by day 10, media were analyzed for collagen breakdown using the hydroxyproline assay.

TRPV4 channel receptor [2] = molecular target: T1, TRPV4 channel receptor (Bos taurus, UniProt A0A8F4X677); experiment: Ca2+ influx in bovine articular chondrocytes (FlexStation); format: cell-based
T1 construct: endogenous in cells; host or cells: bovine articular chondrocytes
T1 sequence (A0A8F4X677 1-871): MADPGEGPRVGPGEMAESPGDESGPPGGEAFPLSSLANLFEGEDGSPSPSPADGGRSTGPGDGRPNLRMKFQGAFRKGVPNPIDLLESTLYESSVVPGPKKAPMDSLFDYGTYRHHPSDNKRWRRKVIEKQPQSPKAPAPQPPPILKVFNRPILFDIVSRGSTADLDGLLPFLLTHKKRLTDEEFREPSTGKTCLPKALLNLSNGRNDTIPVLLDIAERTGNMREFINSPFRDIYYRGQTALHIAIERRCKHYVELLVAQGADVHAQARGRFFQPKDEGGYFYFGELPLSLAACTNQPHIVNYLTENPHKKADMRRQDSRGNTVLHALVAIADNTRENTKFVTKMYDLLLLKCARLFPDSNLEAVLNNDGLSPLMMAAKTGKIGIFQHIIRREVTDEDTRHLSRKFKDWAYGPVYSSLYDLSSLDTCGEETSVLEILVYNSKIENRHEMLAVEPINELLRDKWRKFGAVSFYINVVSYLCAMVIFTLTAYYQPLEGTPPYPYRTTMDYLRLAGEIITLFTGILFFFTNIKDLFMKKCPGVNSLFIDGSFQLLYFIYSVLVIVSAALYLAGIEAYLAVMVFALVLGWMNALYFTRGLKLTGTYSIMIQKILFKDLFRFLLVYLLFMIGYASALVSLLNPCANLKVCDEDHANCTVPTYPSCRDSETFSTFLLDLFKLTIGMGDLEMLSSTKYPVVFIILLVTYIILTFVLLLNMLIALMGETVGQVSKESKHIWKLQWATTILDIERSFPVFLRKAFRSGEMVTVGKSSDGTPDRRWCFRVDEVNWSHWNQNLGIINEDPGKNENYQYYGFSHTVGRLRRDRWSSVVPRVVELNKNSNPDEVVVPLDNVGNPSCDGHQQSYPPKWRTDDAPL

TRPV4 channel receptor [3] = molecular target: T2, TRPV4 channel receptor (Homo sapiens, UniProt Q9HBA0); experiment: Ca2+ influx in human articular chondrocytes (FlexStation)
T2 sequence (Q9HBA0 whole entry): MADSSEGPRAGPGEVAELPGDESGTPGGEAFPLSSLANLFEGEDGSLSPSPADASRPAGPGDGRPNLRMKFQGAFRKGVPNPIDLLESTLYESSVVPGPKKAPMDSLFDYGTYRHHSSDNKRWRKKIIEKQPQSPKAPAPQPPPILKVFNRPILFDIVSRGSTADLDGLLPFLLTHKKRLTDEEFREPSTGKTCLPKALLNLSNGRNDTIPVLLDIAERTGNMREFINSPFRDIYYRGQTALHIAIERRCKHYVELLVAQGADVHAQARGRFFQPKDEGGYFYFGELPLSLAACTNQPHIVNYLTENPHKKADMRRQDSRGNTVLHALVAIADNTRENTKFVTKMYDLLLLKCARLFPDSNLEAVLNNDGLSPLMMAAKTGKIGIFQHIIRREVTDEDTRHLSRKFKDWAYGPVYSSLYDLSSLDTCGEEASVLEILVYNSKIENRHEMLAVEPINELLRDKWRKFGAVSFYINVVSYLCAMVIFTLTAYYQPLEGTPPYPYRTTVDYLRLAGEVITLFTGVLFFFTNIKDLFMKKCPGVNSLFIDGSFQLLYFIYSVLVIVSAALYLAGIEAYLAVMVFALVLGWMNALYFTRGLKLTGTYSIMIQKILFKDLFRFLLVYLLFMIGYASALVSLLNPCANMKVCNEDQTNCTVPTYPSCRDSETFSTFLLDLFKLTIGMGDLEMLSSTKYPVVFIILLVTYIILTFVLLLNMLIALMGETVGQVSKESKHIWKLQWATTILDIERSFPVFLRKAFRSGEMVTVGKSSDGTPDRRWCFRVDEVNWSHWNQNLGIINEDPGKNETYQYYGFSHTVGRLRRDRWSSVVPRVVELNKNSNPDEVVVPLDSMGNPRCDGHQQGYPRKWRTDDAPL

TRPV4 channel receptor [4] = molecular target: TRPV4 channel receptor (Rattus norvegicus, UniProt Q9ERZ8); experiment: Ca2+ influx in rat articular chondrocytes (FlexStation); conditions: for Ca2+ influx: rat chondrocytes
TRPV4 channel receptor (Rattus norvegicus, UniProt Q9ERZ8), sequence (Q9ERZ8 whole entry): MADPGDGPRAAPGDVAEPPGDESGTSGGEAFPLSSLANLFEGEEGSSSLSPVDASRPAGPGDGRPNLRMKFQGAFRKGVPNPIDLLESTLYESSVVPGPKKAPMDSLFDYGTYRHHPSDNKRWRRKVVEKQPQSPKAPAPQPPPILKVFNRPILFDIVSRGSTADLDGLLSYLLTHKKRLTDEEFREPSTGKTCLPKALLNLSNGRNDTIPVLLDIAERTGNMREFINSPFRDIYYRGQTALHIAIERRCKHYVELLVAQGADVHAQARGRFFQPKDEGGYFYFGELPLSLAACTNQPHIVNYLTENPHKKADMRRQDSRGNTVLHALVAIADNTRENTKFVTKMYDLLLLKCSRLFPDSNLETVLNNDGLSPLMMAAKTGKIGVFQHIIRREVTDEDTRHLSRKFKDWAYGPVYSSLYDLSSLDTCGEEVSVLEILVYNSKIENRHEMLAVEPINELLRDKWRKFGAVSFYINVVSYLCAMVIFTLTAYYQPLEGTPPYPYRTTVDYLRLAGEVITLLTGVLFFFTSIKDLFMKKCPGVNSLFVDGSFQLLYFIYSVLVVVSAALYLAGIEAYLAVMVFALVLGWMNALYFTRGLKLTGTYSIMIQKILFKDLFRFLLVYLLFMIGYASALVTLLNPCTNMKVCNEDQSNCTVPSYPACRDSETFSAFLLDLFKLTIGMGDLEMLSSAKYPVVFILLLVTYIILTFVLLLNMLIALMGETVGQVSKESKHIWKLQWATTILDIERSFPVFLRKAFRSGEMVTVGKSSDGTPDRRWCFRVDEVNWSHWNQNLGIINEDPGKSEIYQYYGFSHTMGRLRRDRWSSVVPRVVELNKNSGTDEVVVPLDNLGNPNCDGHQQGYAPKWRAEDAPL

aggrecanase = experiment: IL-1 induced aggrecanase production, chondrocyte-based aggrecanase peptide cleavage assay; format: cell-based, bovine; conditions: Bos taurus
Source text: Aggrecanases (ADAMTSs), in conjunction with MMPs, degrade aggrecan, one of the major matrix components in articular cartilage. […] 2003; 48(1): 119-133].

TRPV4 channel receptor [5] = molecular target: T2, TRPV4 channel receptor; experiment: FLIPR assay; format: cell-based
[6] = system: bovine articular cartilage explants; experiment: IL-1 induced aggrecan degradation (GAG release, DMMB) in bovine articular cartilage explants; format: cell-based
Source text: Articular cartilage explants isolated from newborn calves at slaughter were placed in culture, and aggrecan degradation was initiated through stimulation with IL-1. Since aggrecan degradation in this model is believed to be mediated by aggrecanase, TRPV4 channel receptor agonists that are active in the chondrocyte-based aggrecanase peptide assay (Example 11) may also be effective inhibitors in the cartilage explant assay, presumably by blocking aggrecanase production in these tissues.
At the end of the culture period, conditioned media were assayed for glycosaminoglycan (GAG) levels by colorimetric (DMMB) assay as a measure of aggrecan degradation. In bovine explants, IL-1 induced a profound increase in the amount of GAG released into the media during the 3 day culture. When cartilage was treated with IL-1 in combination with Formula IIc, there was a concentration-dependent reduction in GAG release as shown in Table 5.

human cartilage explants = experiment: Aggrecan degradation (GAG, DMMB) in human cartilage explants; format: cell-based; conditions: Homo sapiens; estimated; 3-point concentration response
Description: Because the progression of aggrecan degradation in response to IL-1 in human cartilage is slower than in bovine cartilage, culture media was removed and replaced with fresh treatments every 2-3 days for approximately 3 weeks. For each timepoint, GAG levels were measured by DMMB assay, and cumulative data released over the entire 3 week culture period was calculated.
The data represents cumulative aggrecan degradation after 21 days in culture. […] In addition, Formula IId caused a concentration-dependent reduction of IL-1-induced aggrecan degradation. […] The estimated IC50's shown in Table 7 are very similar to those IC50's calculated from IL-1-stimulated bovine cartilage.

wild type HEK293 cells = experiment: Intracellular calcium (FLIPR) in wild type HEK293 cells; format: cell-based; design: key to pEC50 wild type: IA = inactive; conditions: for pEC50 wild type: intracellular calcium, mean ± s.e.mean, n = 3-5
Description: (§1) TRPV4 channel receptor cDNA was inserted into the expression vector pcDNA3.1 V5-His (Invitrogen, Carlsbad, Calif.). Wildtype HEK293 cells, or HEK293 cells transfected with the human TRPV4 channel receptor: pcDNA3.1 V5-His construct, or mock transfected cells, or bovine chondrocytes, were seeded into 96-well microtitre plates at 25,000 cells/well and cultured overnight. The cells were then incubated with 4 μM Fluo-3 (Fluo-3: Molecular Probes (Eugene, Oreg.)) for 2 hours at room temperature in the dark. Dye loaded cells were washed 4× with Tyrodes buffer: (NaCl, 145 mM; KCl, 2.5 mM; Hepes, 10 mM; Glucose, 10 mM; MgCl2, 1.2 mM; CaCl2, 1.5 mM), which also contained 0.2% BSA but not probenecid. Agonists and antagonists were also prepared in Tyrodes buffer. Cells were preincubated for 30 minutes with antagonist or buffer. Agonist addition and measurement of cytoplasmic calcium concentration was performed in the FLIPR (Smart, et al., (2000) Br. J. Pharmacol. 129, 227-230).

TRPV4 channel receptor [7] = molecular target: T2, TRPV4 channel receptor; experiment: Intracellular calcium (FLIPR, Fluo-3) in HEK293 cells transfected with human TRPV4 channel receptor; format: cell-based; design: V5-His (from the vector's name only); expressed in transfected cells; host or cells: HEK293; key to pEC50 TRPVR4: IA = inactive; conditions: for pEC50 TRPVR4: intracellular calcium, mean ± s.e.mean, n = 3-5
Description: as §1

TRPVR1 = TRPVR1 (Homo sapiens, UniProt Q8NER1); format: cell-based; conditions: for pEC50 TRPVR1: intracellular calcium, mean ± s.e.mean, n = 3-5
TRPVR1, sequence (Q8NER1 whole entry): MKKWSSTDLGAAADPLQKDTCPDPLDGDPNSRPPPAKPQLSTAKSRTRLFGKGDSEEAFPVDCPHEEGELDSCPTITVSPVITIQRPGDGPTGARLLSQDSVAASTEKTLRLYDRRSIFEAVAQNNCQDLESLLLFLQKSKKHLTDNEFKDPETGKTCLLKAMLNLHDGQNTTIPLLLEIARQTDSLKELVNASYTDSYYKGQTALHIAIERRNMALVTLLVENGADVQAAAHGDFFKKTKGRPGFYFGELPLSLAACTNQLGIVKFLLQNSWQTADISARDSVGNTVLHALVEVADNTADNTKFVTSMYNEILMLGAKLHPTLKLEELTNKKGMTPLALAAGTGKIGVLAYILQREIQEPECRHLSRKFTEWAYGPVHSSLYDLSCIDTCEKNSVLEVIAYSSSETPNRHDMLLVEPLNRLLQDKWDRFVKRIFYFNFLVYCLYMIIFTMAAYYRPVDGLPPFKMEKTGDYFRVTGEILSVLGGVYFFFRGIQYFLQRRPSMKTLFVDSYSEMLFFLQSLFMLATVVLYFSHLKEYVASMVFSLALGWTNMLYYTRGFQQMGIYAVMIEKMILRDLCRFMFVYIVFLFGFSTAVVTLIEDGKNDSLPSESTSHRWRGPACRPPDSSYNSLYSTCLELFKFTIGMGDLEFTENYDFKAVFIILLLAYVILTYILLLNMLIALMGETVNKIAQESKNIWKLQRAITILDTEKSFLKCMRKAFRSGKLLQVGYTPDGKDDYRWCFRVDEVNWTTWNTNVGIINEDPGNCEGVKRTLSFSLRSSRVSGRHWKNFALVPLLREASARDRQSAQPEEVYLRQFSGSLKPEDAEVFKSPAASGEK

[8] = system: cells transfected with empty vector; experiment: Intracellular calcium (FLIPR) in HEK293 cells transfected with empty vector; format: cell-based; design: key to pEC50 empty vector: IA = inactive; conditions: for pEC50 empty vector: intracellular calcium, mean ± s.e.mean, n = 3-5
Description: as §1

Structure (SMILES): COc1ccc(S(=O)(=O)N(Cc2cccnc2)[C@@H](C(=O)NO)C(C)C)cc1 [CGS-27023A, reference compound]
- block of IL-1-induced collagen degradation [1]: completely blocked

Structure (SMILES): CC(C)C[C@H](NC(=O)c1cc2ccccc2s1)C(=O)NCCCN(C)S(=O)(=O)c1ccc(Cl)cc1Cl [Formula IIIc, N-{(1S)-1-[({3-[[(2,4-dichlorophenyl)sulfonyl](methyl)amino]propyl}amino)carbonyl]-3-methylbutyl}-1-benzothiophene-2-carboxamide]
- BAC % eff (TRPV4 channel receptor [2]; bovine articular chondrocytes): (94%)
- EC50 (TRPV4 channel receptor [2]; bovine articular chondrocytes, read-out: BAC EC50): 310 nM
- EC50 (TRPV4 channel receptor [3]; HAC EC50, human articular chondrocytes, N = 2): 250 nM
- HAC % eff (TRPV4 channel receptor [3]; human articular chondrocytes, N = 2): 127%
- EC50 (TRPV4 channel receptor [4]; RAC EC50, rat articular chondrocytes, N = 2): 140 nM
- RAC % eff (TRPV4 channel receptor [4]; rat articular chondrocytes, N = 2): 70%
- IC50 (aggrecanase): 40 nM
- EC50 (TRPV4 channel receptor [5]): 370 nM

Structure (SMILES): CC(C)C[C@H](NC(=O)c1cc2ccccc2s1)C(=O)N[C@@H]1CCCN(S(=O)(=O)c2ccc(Cl)cc2)CC1=O [Formula IIc, N-{(1S)-1-[({(4R)-1-[(4-chlorophenyl)sulfonyl]-3-oxohexahydro-1H-azepin-4-yl}amino)carbonyl]-3-methylbutyl}-1-benzothiophene-2-carboxamide]
- GAG release Mean ± SEM ([6]; 0.01 μM, IL-1 100 ng/ml, 3 days): 62 ± 4.82 μg/explant
- GAG release Mean ± SEM ([6]; 0.03 μM, IL-1 100 ng/ml, 3 days): 59 ± 4.62 μg/explant
- GAG release Mean ± SEM ([6]; 0.10 μM, IL-1 100 ng/ml, 3 days): 43 ± 3.18 μg/explant
- GAG release Mean ± SEM ([6]; 1.00 μM, IL-1 100 ng/ml, 3 days): 14 ± 1.44 μg/explant
- inhibition at 0.01 µM ([6]; Bos taurus, 72 h, 0.01 μM, IL-1 100 ng/ml, 3 days): -2%
- inhibition at 0.03 µM ([6]; Bos taurus, 72 h, 0.03 μM, IL-1 100 ng/ml, 3 days): 4%
- inhibition at 0.1 µM ([6]; Bos taurus, 72 h, 0.10 μM, IL-1 100 ng/ml, 3 days): 38%
- inhibition at 1 µM ([6]; Bos taurus, 72 h, 1.00 μM, IL-1 100 ng/ml, 3 days): 98%
- inhibition of aggrecan degradation ([6]; IL-1 stimulation for 12 or 21 days): Significant inhibition

Structure (SMILES): CC(C)C[C@H](NC(=O)c1cc2ccccc2n1C)C(=O)N[C@@H]1CCCN(S(=O)(=O)c2ccccc2C#N)CC1 [Formula Ib, N-{(1S)-1-[({(4R)-1-[(2-cyanophenyl)sulfonyl]hexahydro-1H-azepin-4-yl}amino)carbonyl]-3-methylbutyl}-methyl-1H-indole-2-carboxamide]
- Ca Influx - FLEX (bovine) % effic. (TRPV4 channel receptor [2]; bovine chondrocytes): 119%
- EC50 (TRPV4 channel receptor [2]; bovine chondrocytes, read-out: Ca Influx - FLEX (bovine) EC50): 280 nM
- IC50 (human cartilage explants): 300 nM
- IC50 ([6]; Bos taurus, IL-1-stimulated bovine cartilage): 200 nM
- EC50 (TRPV4 channel receptor [3]; Ca Influx - FLEX (human) EC50, human chondrocytes): 260 nM
- Ca Influx - FLEX (human) % effic. (TRPV4 channel receptor [3]; human chondrocytes): 133%
- IC50 (aggrecanase): 600 nM
- Hydroxyproline Mean ± SEM ([1]; 1 uM, IL-1 50 ng/ml, media from day 14-18): 6 ± 2 µg
- inhibition at 1 µM ([1]; Bos taurus, 336 h, 1 uM, IL-1 50 ng/ml, media from day 14-18): 95%

Structure (SMILES): CCCCCCCCCCCCCC(=O)O[C@@H]1[C@@H](C)[C@@]2(O)[C@@H](C=C(CO)C[C@]3(O)C(=O)C(C)=C[C@@H]23)[C@@H]2C(C)(C)[C@]12OC(C)=O [PMA, phorbol 12-myristate 13-acetate]
- Ca2+ influx (TRPV4 channel receptor [2]; bovine chondrocytes): no change in Ca^2+ influx
- effect on intracellular calcium in wild type HEK293 cells (wild type HEK293 cells): without effect
- pEC50 wild type (wild type HEK293 cells): IA
- intracellular calcium in HEK293-TRPV4 channel receptor cells (TRPV4 channel receptor [7]): increased intracellular calcium
- pEC50 TRPVR4 (TRPV4 channel receptor [7]): 6.64 ± 0.06
- activation of VR1 (TRPVR1): activated VR1
- Emax at VR1 (TRPVR1; compared to capsaicin and RTX): 0.46
- pEC50 TRPVR1 (TRPVR1): 7.86 ± 0.06
- effect on intracellular calcium in cells transfected with empty vector [8]: without effect
- pEC50 empty vector [8]: IA
- Ca2+ influx (TRPV4 channel receptor [3]; human chondrocytes): no change in Ca^2+ influx
- Ca2+ influx (TRPV4 channel receptor [4]): no change in Ca^2+ influx

Structure (SMILES): C=C(C)[C@]12C[C@@H](C)[C@@]34O[C@](Cc5ccccc5)(O[C@@H]1[C@@H]3C=C(COC(=O)Cc1ccc(O)c(OC)c1)C[C@]1(O)C(=O)C(C)=C[C@@H]41)O2 [RTX]
- pEC50 wild type (wild type HEK293 cells): IA
- pEC50 TRPVR4 (TRPV4 channel receptor [7]): IA
- pEC50 TRPVR1 (TRPVR1): 8.93 ± 0.20
- pEC50 empty vector [8]: IA

Structure (SMILES): COc1cc(CNC(=O)CCCC/C=C/C(C)C)ccc1O [capsaicin, reference compound]
- Ca2+ influx (TRPV4 channel receptor [2]; bovine chondrocytes): no change in Ca^2+ influx
- pEC50 wild type (wild type HEK293 cells): IA
- pEC50 TRPVR4 (TRPV4 channel receptor [7]): IA
- pEC50 empty vector [8]: IA
- Ca2+ influx (TRPV4 channel receptor [3]; human chondrocytes): no change in Ca^2+ influx
- Ca2+ influx (TRPV4 channel receptor [4]): no change in Ca^2+ influx
